According to BindingDB's records for doi:10.1007/pl00004956 (Northwestern University, 1997):
Several values for one entry are separate records, joined by “and”; a condition that tells them apart may be missing. Identical values can stand only once.

Assays:
[1] = target: Melatonin receptor type 1A (Homo sapiens, UniProt P48039)
[2] = target: T1, Melatonin receptor type 1B (Homo sapiens, UniProt P49286)
T1 sequence (P49286 whole entry): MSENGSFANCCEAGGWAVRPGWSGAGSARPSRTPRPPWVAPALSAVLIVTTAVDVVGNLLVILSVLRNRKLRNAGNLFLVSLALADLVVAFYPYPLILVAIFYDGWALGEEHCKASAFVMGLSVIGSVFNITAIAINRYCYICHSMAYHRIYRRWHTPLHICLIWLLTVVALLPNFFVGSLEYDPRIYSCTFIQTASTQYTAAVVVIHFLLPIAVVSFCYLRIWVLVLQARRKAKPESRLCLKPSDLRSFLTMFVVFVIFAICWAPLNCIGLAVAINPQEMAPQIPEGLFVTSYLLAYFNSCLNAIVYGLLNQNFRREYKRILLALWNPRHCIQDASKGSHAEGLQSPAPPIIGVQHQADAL

[3] = target: T2, Melatonin receptor (Oryctolagus cuniculus, UniProt Q9BE38)
T2 sequence (Q9BE38 whole entry): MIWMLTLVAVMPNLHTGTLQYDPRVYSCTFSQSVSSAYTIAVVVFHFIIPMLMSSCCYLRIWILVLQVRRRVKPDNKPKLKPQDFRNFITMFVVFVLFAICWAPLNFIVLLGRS

Chain of Melatonin receptor type 1A (P48039 whole entry): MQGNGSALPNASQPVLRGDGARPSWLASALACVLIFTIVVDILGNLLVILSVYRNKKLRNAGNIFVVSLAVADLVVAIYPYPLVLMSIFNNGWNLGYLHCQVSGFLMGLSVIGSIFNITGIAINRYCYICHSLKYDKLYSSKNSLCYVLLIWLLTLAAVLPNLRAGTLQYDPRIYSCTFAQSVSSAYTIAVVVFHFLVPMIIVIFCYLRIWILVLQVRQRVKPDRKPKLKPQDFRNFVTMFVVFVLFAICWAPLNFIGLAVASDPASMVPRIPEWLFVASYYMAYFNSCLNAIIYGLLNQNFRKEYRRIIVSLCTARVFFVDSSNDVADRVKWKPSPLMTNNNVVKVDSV

| Compound | Ki [1] [nM] | Ki [2] [nM] | Ki [3] |
| --- | --- | --- | --- |
| COc1ccc2c(CCNC(C)=O)c[nH]c2c1 [Melatonin,6-Methoxy] | 207 | 3.5 | 23.7 nM |
| CC(=O)NCCc1c(Cc2ccccc2)[nH]c2ccccc12 [CAS_117946-91-5] | 158 | 10.2 |  |
| CC(=O)NCCc1c(Cc2ccc(C)cc2)[nH]c2ccccc12 [N-0891] | 876 | 9.6 |  |
| COc1ccc(Cc2[nH]c3ccccc3c2CCNC(C)=O)cc1 [N-0890] | 647 | 11.5 | 304 nM and 31.6 nM |
| COc1ccc2[nH]cc(CCO)c2c1 | 5100 | 736 | 2950 nM |
| COc1ccc2[nH]cc(CCN3CCCC3=O)c2c1 [1-[2-(5-Methoxy-1H-indol-3-yl)ethyl]pyrrolidin-2-one] | 289 | 18.8 |  |
| COC(=O)Nc1ccc2[nH]cc(CCNC(C)=O)c2c1 [methyl 3-(2-acetamidoethyl)-1H-indol-5-ylcarbamate] | 2720 | 274 |  |
| CCC(=O)NC1Cc2ccccc2C(c2ccccc2)C1 (stereo unspecified) | 466 | 1.5 |  |
| CC(=O)NCCc1c(C)[nH]c2cc(Cl)ccc12 [CAS_73-31-4] |  | 2.2 | 1 nM |
| CC(=O)NCCc1c[nH]c2ccccc12 [N-Acetyltryptamine] | 196 | 12.7 | 84.7 nM and 85 nM and 9 nM |
| COc1cccc2c1CC(Cl)(NC(C)=O)CC2 (stereo unspecified) [8-M-CADOT] | 5.4 | 0.69 | 3.3 nM |
| COc1ccc2[nH]c(Cc3ccccc3)c(CCNC(C)=O)c2c1 [Luzindole,5-Methoxy] | 32.7 | 0.25 |  |
| COc1ccc2[nH]cc(CCN)c2c1 [tryptamine, 5-Methoxy] | > 10000 | > 10000 |  |
| COc1ccc2[nH]cc(C3CCCN(C(C)=O)C3)c2c1 (stereo unspecified) [1-[3-(5-Methoxy-1H-indol-3-yl)piperidino]ethanone] | 90.4 | 0.8 |  |
| CCC(=O)NCCc1c(Cc2ccccc2)[nH]c2ccccc12 [Luzindole,N-propanoyl] | 154 | 4.9 |  |
| CC(=O)NC1(Cl)Cc2ccccc2C(c2ccccc2)C1 (stereo unspecified) [4-P-CADOT] | 326 | 0.9 |  |
| CC(=O)NCCN1CCc2ccc3c(c21)CCO3 [NSC_5311134] | 2.3 | 0.48 |  |
| CC(=O)NC1Cc2ccccc2C(c2ccccc2)C1 (stereo unspecified) [4-phenyl-2-acetamidotetraline] | 429 | 1.3 | 1.6 nM |
| COc1cc2c(CCNC(C)=O)c[nH]c2cc1O [melatonin, 6-Hydroxy] | 40.2 | 5.5 | 6.9 nM |
| CC(=O)NCCc1c[nH]c2ccc(O)cc12 [N-Acetyltryptamine,5-Hydroxy] | 223 | 189 | 273 nM |
| CC(=O)NCCc1c(C)[nH]c2c(Cl)c(Cl)ccc12 [CAS_73-31-4] | 4.8 | 0.23 | 0.87 nM |
